Test system: mild to moderate AD patients
Experiment: Phase 3 trial in mild to moderate AD: ADAS-cog change from baseline
Type: in vivo, human
Source text: The co-primary efficacy outcomes were change from baseline in 11-item Alzheimer's Disease Assessment Scale—cognitive subscale (ADAS-cog) and the 23-item Alzheimer's Disease Cooperative Study Activities of Daily Living (ADCS-ADL). Magnetic resonance imaging (MRI) volumetry was chosen as the principal secondary outcome to support a potential effect on the rate of brain atrophy (Fox et al., 1997; Ridha et al., 2008). Change in Lateral Ventricular Volume (LVV), as measured by the Ventricular Boundary Shift Integral (VBSI), (Salloway et al., 2014) was chosen as the principal measure as it provides high-contrast boundaries for measurement and is less affected by motion artefacts than whole brain or smaller structures. Key supportive topographical measures (temporo-parietal (TPV) and hippocampal volume (HV)) are also reported.
Patients were recruited at 115 sites across 16 countries between January 2013 and August 2014. Enrolment of approximately 833 patients was targeted, with 891 patients actually recruited, in order to obtain data on approximately 500 patients completing the study, assuming a 30-40% drop-out rate. […] Adult caregiver(s) were required to participate. Concomitant use of AChEIs and/or memantine was permitted, provided the patient had been taking the medication(s) for […], with no changes to the dosage for 26 weeks prior to screening. Concomitant use of serotonergic antidepressant medication was permitted, but patients were monitored closely using a targeted rating scale derived from 4 published diagnostic criteria (Alusik et al., 2014) due to a theoretical potential for serotonin syndrome (Ramsay et al., 2007). […] Because MT^+ in high doses can induce methaemoglobinaemia, subjects with glucose-6-phosphate dehydrogenase deficiency or who were otherwise at haematological risk were excluded. Other inclusion/exclusion criteria are provided in the Supplementary Materials.
Patients were randomised at baseline to LMTM 75 mg b.i.d. or 125 mg b.i.d. (expressed as MT base equivalent) or control in a 3:3:4 ratio. The randomisation was stratified according to geographical region (3 levels: North America, Europe, rest of world), use of AD-labelled co-medications (2 levels, using or not using) and severity (2 levels, moderate MMSE 14-19 inclusive, mild MMSE 20-26 inclusive). Patients in the control arm received a dose of 4 mg b.i.d. to maintain blinding.
ADAS-cog and ADCS-ADL assessments were performed at baseline and every 13 weeks thereafter, with change at 65 weeks (the final on-treatment visit) the primary efficacy measures. These were repeated at the final off-treatment follow-up visit at Week 69. Secondary efficacy measures included Clinical Global Impression of Change (ADCS-CGIC, administered by an independent rater); MMSE, administered on screening and at Weeks 26, 52, 65 and 69. Brain MRI scans were performed at baseline/screening and every 13 weeks using a standardized protocol including volumetric 3D T1-weighted data consistent with ADNI recommendations, FLAIR, T2* Gradient Echo and T2-weighted sequences. Diffusion-Weighted Imaging was also available at screening in order to exclude patients with co-existing pathology that would lead to a diagnosis other than probable AD. Each site was first qualified ensuring standardised acquisition protocol, patient handling and data management. MRI data were centrally collected by Imaging Corelab (Bioclinica). Data were centrally reviewed by RadMD for eligibility and safety (Amyloid Related Imaging Abnormalities, or ARIA monitoring) on an on-going basis. Volumetric 3DT1 data were also reviewed centrally in order to measure (using a boundary shift integral (BSI) technique; Salloway et al., 2014) change in LVV as principal secondary outcome measure, and as exploratory endpoints temporo-parietal volume (TPV), whole brain volume (WBV) and hippocampal volume (HV, estimated as the mean of left and right) (Wischik et al., 2016). […]

## CN(C)c1ccc2c(c1)Sc1cc(N(C)C)ccc1N2 [LMTM, leuco-methythioninium bis(hydromethanesulfonate)]
75 mg b.i.d. monotherapy, 65 weeks
  ADAS-cog treatment effect as % of the decline over 65 weeks seen in the control arm (mean±SE): 103%±23%
125 mg b.i.d. monotherapy, 65 weeks
  ADAS-cog treatment effect as % of the decline over 65 weeks seen in the control arm (mean±SE): 83%±23%
Table 2 primary analysis, 65 weeks, covariates additive, control arm (LMTM 4 mg b.i.d.)
  ADAS-cog, Estimate (change from baseline): 6.32 ADAS-cog units
Table 2 primary analysis, 65 weeks, 75 mg b.i.d.
  ADAS-cog, Estimate (difference with respect to control): −0.02 ADAS-cog units
Table 2 primary analysis, 65 weeks, 125 mg b.i.d.
  ADAS-cog, Estimate (difference with respect to control): −0.43 ADAS-cog units
Table 2 primary analysis, 65 weeks, patients not using AChEI/Mem (additive covariate)
  ADAS-cog, Estimate (mean additive treatment benefit): −2.30 ADAS-cog units
Table 3, AChEI/Mem as interaction term, 65 weeks, 75 mg b.i.d. + AChEI/Mem
  ADAS-cog, Estimate (difference vs control): 1.02 ADAS-cog units
Table 3, AChEI/Mem as interaction term, 65 weeks, 75 mg b.i.d. monotherapy
  ADAS-cog, Estimate (difference vs control): −6.25 ADAS-cog units
Table 3, AChEI/Mem as interaction term, 65 weeks, 125 mg b.i.d. + AChEI/Mem
  ADAS-cog, Estimate (difference vs control): 0.50 ADAS-cog units
Table 3, AChEI/Mem as interaction term, 65 weeks, 125 mg b.i.d. monotherapy
  ADAS-cog, Estimate (difference vs control): −5.79 ADAS-cog units
Table 3, AChEI/Mem as interaction term, 65 weeks, control arm (4 mg b.i.d.)
  ADAS-cog, Estimate (change from baseline): 5.98 ADAS-cog units
Table 4 post-hoc, control-arm subjects, 4 mg b.i.d. + AChEI/Mem
  ADAS-cog, Estimate (change from baseline): 6.79 ADAS-cog units
Table 4 post-hoc, control-arm subjects, 4 mg b.i.d. monotherapy vs 4 mg b.i.d. + AChEI/Mem
  ADAS-cog, Estimate (difference): −5.90 ADAS-cog units
Table 7, mild AD, 4 mg b.i.d. + AChEI/Mem (control-arm subjects)
  ADAS-cog, Estimate (change from baseline): 3.24 ADAS-cog units
Table 7, mild AD, 4 mg b.i.d. alone vs 4 mg b.i.d. + AChEI/Mem
  ADAS-cog, Estimate (difference): −6.41 ADAS-cog units
Table 7, mild AD, 75 mg b.i.d. alone vs control arm as randomised
  ADAS-cog, Estimate (difference): −8.89 ADAS-cog units
Table 7, mild AD, 125 mg b.i.d. alone vs control arm as randomised
  ADAS-cog, Estimate (difference): −5.03 ADAS-cog units
Table 7, mild AD, control arm as randomised (4 mg b.i.d.)
  ADAS-cog, Estimate (change from baseline): 2.27 ADAS-cog units
Table 7, moderate AD, 4 mg b.i.d. + AChEI/Mem (control-arm subjects)
  ADAS-cog, Estimate (change from baseline): 8.49 ADAS-cog units
Table 7, moderate AD, 4 mg b.i.d. alone vs 4 mg b.i.d. + AChEI/Mem
  ADAS-cog, Estimate (difference): −4.74 ADAS-cog units
Table 7, moderate AD, 75 mg b.i.d. alone vs control arm as randomised
  ADAS-cog, Estimate (difference): −2.01 ADAS-cog units
Table 7, moderate AD, 125 mg b.i.d. alone vs control arm as randomised
  ADAS-cog, Estimate (difference): −5.75 ADAS-cog units
Table 7, moderate AD, control arm as randomised (4 mg b.i.d.)
  ADAS-cog, Estimate (change from baseline): 7.89 ADAS-cog units
Control arm (LMTM 4 mg b.i.d.), 12 months
  ADAS-cog decline at 12 months (mean±se): 3.85±0.47
Mild patients, LMTM monotherapy
  Mean treatment benefit relative to control on ADAS-cog: 240%±41%
